Data reported in patent publication US20020136785A1, “Ginseng berry extracts and pharmaceutical compositions from ginseng berry for the treatment of type 2 diabetes and obesity” (priority 2000, published 2002).

Columns and labels:
[1] = test system: cultured bovine adrenal chromaffin cells; details: cultured bovine adrenal chromaffin cells (Kudo et al., 1998); cited from earlier work
[2] = Odani et al., 1983; cited from earlier work
[3] = Karikura et al., 1991; cited from earlier work
[4] = target: T1, nuclear glucocorticoid receptor (Homo sapiens, UniProt P04150); details: Lee et al., 1997; Chung et al., 1998; cited from earlier work
T1 sequence (P04150 1-777): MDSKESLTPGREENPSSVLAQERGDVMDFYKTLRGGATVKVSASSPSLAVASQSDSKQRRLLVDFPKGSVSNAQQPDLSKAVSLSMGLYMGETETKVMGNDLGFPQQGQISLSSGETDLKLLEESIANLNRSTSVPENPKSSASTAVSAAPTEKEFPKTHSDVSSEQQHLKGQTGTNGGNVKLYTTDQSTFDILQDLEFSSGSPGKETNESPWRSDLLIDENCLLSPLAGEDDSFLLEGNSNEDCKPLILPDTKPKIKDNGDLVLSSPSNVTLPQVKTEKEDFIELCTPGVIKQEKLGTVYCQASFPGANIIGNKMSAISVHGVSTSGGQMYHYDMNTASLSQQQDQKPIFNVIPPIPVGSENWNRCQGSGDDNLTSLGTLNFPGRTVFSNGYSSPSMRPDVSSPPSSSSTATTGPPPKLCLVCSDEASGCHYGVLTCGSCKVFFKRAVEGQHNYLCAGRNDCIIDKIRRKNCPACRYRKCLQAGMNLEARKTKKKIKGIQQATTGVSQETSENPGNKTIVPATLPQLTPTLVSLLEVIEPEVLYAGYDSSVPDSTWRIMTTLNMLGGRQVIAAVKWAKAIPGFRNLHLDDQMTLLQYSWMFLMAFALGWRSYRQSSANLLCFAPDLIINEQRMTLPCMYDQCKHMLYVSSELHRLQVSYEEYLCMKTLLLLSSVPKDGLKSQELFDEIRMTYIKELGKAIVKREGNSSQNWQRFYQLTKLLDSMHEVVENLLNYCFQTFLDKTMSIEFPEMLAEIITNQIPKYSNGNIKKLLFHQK

B16-BL6 melanoma cells = B16-BL6 melanoma cells (Wakabayashi et al., 1998); cited from earlier work
[5] = Hasegawa et al., 1995; cited from earlier work
albumin mRNA = details: streptozotocin-induced diabetic rats (Yokozawa et al., 1996); cited from earlier work
[6] = test system: streptozotocin-induced diabetic rats; details: streptozotocin-induced diabetic rats (Yokozawa et al., 1985); cited from earlier work
[7] = test system: hepatic tissue of streptozotocin-induced diabetic rats; details: streptozotocin-induced diabetic rats (Yokozawa et al., 1991); cited from earlier work
C57BL/6J ob/ob mice = test: Fasting blood glucose level in ob/ob mice; format: in vivo; details: 20 mg/kg daily IP
Excerpt: (§1) Male C57BL/6J ob/ob mice and their lean littermates (+/?) were obtained from Jackson Laboratory (Bar Harbor, Me.). In this obese, insulin-resistant mouse model, obesity is due to a mutation in the obese gene that encodes for leptin. […] The heterozygous mice are lean and normoglycemic. It is believed that the development of hyperglycemia in the ob/ob mouse is a consequence of epistatic interaction of the obesity mutation with diabetes-susceptibility genes. Adult animals at 10-18 weeks of age were used. Mice were housed in environmentally controlled conditions with a 12-h light/dark cycle and had free access to standard rodent pellet food, except when fasted before some experiments.
(§2) Animals were treated with Panax ginseng berry extract, Panax quinquefolius berry extract, ginsenoside Re or a polysaccharides fraction from Panax quinquefolius and the fasting blood glucose levels were measured. Fasting blood glucose levels were measured after animals were fasted for 4 hr (starting from 9:00AM), on Day 0 (before treatment), Day 5 (during treatment), and Day 12 (last day of treatment). Blood glucose levels were determined in tail blood samples at 1:00PM using a Glucose Analyzer (Hemocue AB, Angelholm, Sweden).

[8] = test system: lean littermates (+/?) of C57BL/6J ob/ob mice; test: Fasting blood glucose level in lean littermates of ob/ob mice; format: in vivo; details: after treatment with ginsenoside Re
Excerpt: as §1, §2

lean mice = test: Intraperitoneal glucose tolerance test (IPGTT) in lean mice; format: in vivo; details: 20 mg/kg, 12 days
Experimental: (§3) Animals were treated with Panax ginseng berry extract, Panax quinquefolius berry extract, ginsenoside Re, or a polysaccharide fraction from Panax quinquefolius . IPGTT was performed on Day 0 and Day 12. On the days of the test, animals were fasted for 4 hr (starting from 9:00AM) followed by an IP administration of glucose (2 g/kg). Blood glucose levels were determined in tail blood samples at 0 (prior to glucose administration), and 30, 60 and 120 min after glucose administration.

[9] = Body weight of ob/ob mice; format: in vivo
Experimental: The average body weight of adult ob/ob or db/db mice is almost twice that of their lean littermates. Animals were treated with Panax ginseng berry extract, Panax quinquefolius berry extract, ginsenoside Re, or a polysaccharide fraction from Panax quinquefolius and the body weights were determined.

ob/ob mice = test: Intraperitoneal glucose tolerance test (IPGTT) in ob/ob mice; format: in vivo; details: 20 mg/kg, 12 days, compared to vehicle-treated ob/ob mice
Experimental: as §3

## CC(C)=CCC[C@@](C)(O)[C@H]1CC[C@]2(C)[C@@H]1[C@H](O)C[C@@H]1[C@@]3(C)CC[C@H](O)C(C)(C)[C@@H]3[C@@H](O[C@@H]3O[C@H](CO)[C@@H](O)[C@H](O)[C@H]3O[C@@H]3O[C@@H](C)[C@H](O)[C@@H](O)[C@H]3O)C[C@]12C [20(R) ginsenoside Rg2]
[1]
  acetylcholine-evoked secretion of catecholamines: inhibit

## CC(C)=CCCC(C)(O)C1CCC2(C)C1C(O)CC1C3(C)CCC(O)C(C)(C)C3C(OC3OC(CO)C(O)C(O)C3OC3OC(C)C(O)C(O)C3O)CC12C [20(S) ginsenoside Rg2]
[1]
  acetylcholine-evoked secretion of catecholamines: inhibit
  inhibitory effect compared with the other C-20 isomer: greater inhibitory effect

## CC(C)=CCC[C@](C)(O[C@@H]1O[C@H](CO[C@@H]2O[C@H](CO)[C@@H](O)[C@H](O)[C@H]2O)[C@@H](O)[C@H](O)[C@H]1O)[C@H]1CC[C@]2(C)[C@@H]1[C@H](O)C[C@@H]1[C@@]3(C)CC[C@H](O[C@@H]4O[C@H](CO)[C@@H](O)[C@H](O)[C@H]4O[C@@H]4O[C@H](CO)[C@@H](O)[C@H](O)[C@H]4O)C(C)(C)[C@@H]3CC[C@]12C [Rb1]
[2]
  absorption after ingestion: poorly absorbed
[3]
  metabolism by intestinal flora: hydrolyzed to compound K

## CC(C)=CCC[C@](C)(O[C@@H]1O[C@H](CO)[C@@H](O)[C@H](O)[C@H]1O)[C@H]1CC[C@]2(C)[C@@H]1[C@H](O)C[C@@H]1[C@@]3(C)CC[C@H](O)C(C)(C)[C@@H]3[C@@H](O[C@@H]3O[C@H](CO)[C@@H](O)[C@H](O)[C@H]3O)C[C@]12C [Rg1]
[2]
  absorption after ingestion: poorly absorbed
[4]
  ligand of the nuclear glucocorticoid receptor: functional ligand

## CC(C)=CCC[C@](C)(O[C@@H]1O[C@H](CO)[C@@H](O)[C@H](O)[C@H]1O)[C@H]1CC[C@]2(C)[C@@H]1[C@H](O)C[C@@H]1[C@@]3(C)CC[C@H](O)C(C)(C)[C@@H]3CC[C@]12C [compound K]
B16-BL6 melanoma cells
  apoptosis: induce apoptosis
[5]
  cytotoxicity of antineoplastic drugs: increase the cytotoxicity

## CC(C)=CCC[C@](C)(O[C@@H]1O[C@H](CO[C@@H]2OC[C@H](O)[C@H](O)[C@H]2O)[C@@H](O)[C@H](O)[C@H]1O)[C@H]1CC[C@]2(C)[C@@H]1[C@H](O)C[C@@H]1[C@@]3(C)CC[C@H](O[C@@H]4O[C@H](CO)[C@@H](O)[C@H](O)[C@H]4O[C@@H]4O[C@H](CO)[C@@H](O)[C@H](O)[C@H]4O)C(C)(C)[C@@H]3CC[C@]12C [ginsenoside Rb2]
Albumin mRNA
  albumin mRNA in the liver: increased albumin mRNA
[6]
  blood glucose levels: significant decrease
[7]
  ATP levels in hepatic tissue: increased ATP levels

## CC(C)=CCC[C@](C)(O[C@@H]1O[C@H](CO)[C@@H](O)[C@H](O)[C@H]1O)[C@H]1CC[C@]2(C)[C@@H]1[C@H](O)C[C@@H]1[C@@]3(C)CC[C@H](O)C(C)(C)[C@@H]3[C@@H](O[C@@H]3O[C@H](CO)[C@@H](O)[C@H](O)[C@H]3O[C@@H]3O[C@@H](C)[C@H](O)[C@@H](O)[C@H]3O)C[C@]12C [ginsenoside Re]
C57BL/6J ob/ob mice; Day 5, 4 hr fast
  fasting blood glucose: 188 ± 9.2 mg/dL
C57BL/6J ob/ob mice; Day 12, 4 hr fast
  fasting blood glucose: 180 ± 10.8 mg/dL
[8]
  change of fasting blood glucose: did not change sizably
Lean mice
  glucose tolerance, IPGTT: not statistically affected
[9]; 20 mg/kg group, Day 0
  body weight: 53.1 ± 1.4 g
[9]; 20 mg/kg, Day 5
  body weight: 52.9 ± 1.5 g
[9]; 20 mg/kg, Day 12
  body weight: 54.7 ± 1.7 g
ob/ob mice
  blood glucose levels at 60 min and 120 min following glucose administration, IPGTT: significantly decreased
